Test results from PubChem BioAssay (NCI).
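Growth conditions: 96-well plates. Treatment: test compound, 48 hours, 5 concentrations. Analysis: linear interpolation between bracketing concentrations; unreached endpoints set to highest concentration. The concentration for 50% growth inhibition is given as GI50. TGI is the concentration that stops growth completely.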

Tests used:
Experiment in all cases: NCI-60 cell line screen, 48 h
786-0 renal = tested on: 786-0 renal
A498 renal = tested on: A498 renal
ACHN renal = tested on: ACHN renal
BT-549 breast = tested on: BT-549 breast
CAKI-1 renal = tested on: CAKI-1 renal
CCRF-CEM leukemia = tested on: CCRF-CEM leukemia
COLO 205 colon = tested on: COLO 205 colon
DU-145 prostate = tested on: DU-145 prostate
EKVX NSCLC = tested on: EKVX NSCLC
HCC-2998 colon = tested on: HCC-2998 colon
HCT-116 colon = tested on: HCT-116 colon
HCT-15 colon = tested on: HCT-15 colon
HL-60(TB) leukemia = tested on: HL-60(TB) leukemia
HOP-62 NSCLC = tested on: HOP-62 NSCLC
HOP-92 NSCLC = tested on: HOP-92 NSCLC
HS 578T breast = tested on: HS 578T breast
HT29 colon = tested on: HT29 colon
IGROV1 ovarian = tested on: IGROV1 ovarian
K-562 leukemia = tested on: K-562 leukemia
KM12 colon = tested on: KM12 colon
LOX IMVI melanoma = tested on: LOX IMVI melanoma
M14 melanoma = tested on: M14 melanoma
MCF7 breast = tested on: MCF7 breast
MDA-MB-231 breast = tested on: MDA-MB-231 breast
MDA-MB-435 = tested on: MDA-MB-435
MOLT-4 leukemia = tested on: MOLT-4 leukemia
NCI-H226 lung = tested on: NCI-H226 lung
NCI-H23 lung = tested on: NCI-H23 lung
NCI-H460 lung = tested on: NCI-H460 lung
NCI/ADR-RES ovarian = tested on: NCI/ADR-RES ovarian
OVCAR-4 ovarian = tested on: OVCAR-4 ovarian
OVCAR-8 ovarian = tested on: OVCAR-8 ovarian
PC-3 prostate = tested on: PC-3 prostate
RPMI-8226 leukemia = tested on: RPMI-8226 leukemia
RXF 393 renal = tested on: RXF 393 renal
SF-268 CNS = tested on: SF-268 CNS
SF-295 CNS = tested on: SF-295 CNS
SF-539 CNS = tested on: SF-539 CNS
SK-MEL-2 melanoma = tested on: SK-MEL-2 melanoma
SK-MEL-28 melanoma = tested on: SK-MEL-28 melanoma
SK-MEL-5 melanoma = tested on: SK-MEL-5 melanoma
SK-OV-3 ovarian = tested on: SK-OV-3 ovarian
SNB-19 CNS = tested on: SNB-19 CNS
SNB-75 CNS = tested on: SNB-75 CNS
SR leukemia = tested on: SR leukemia
SW-620 colon = tested on: SW-620 colon
T-47D breast = tested on: T-47D breast
TK-10 renal = tested on: TK-10 renal
U251 CNS = tested on: U251 CNS
UACC-257 melanoma = tested on: UACC-257 melanoma
UACC-62 melanoma = tested on: UACC-62 melanoma
UO-31 renal = tested on: UO-31 renal
A549 NSCLC = tested on: A549 NSCLC
MALME-3M melanoma = tested on: MALME-3M melanoma
NCI-H522 lung = tested on: NCI-H522 lung
OVCAR-3 ovarian = tested on: OVCAR-3 ovarian
OVCAR-5 ovarian = tested on: OVCAR-5 ovarian
SN12C renal = tested on: SN12C renal

In the case of `Cc1cccc(NC(=S)Nc2ccc(Cl)cc2)n1`, the TGI (786-0 renal) is reported as over 100 µM, the TGI (A498 renal) is reported as over 100 µM and the TGI (ACHN renal) is reported as over 100 µM. For the same compound, the TGI (BT-549 breast) was over 100 µM, the TGI (CAKI-1 renal) was over 100 µM and the TGI (CCRF-CEM leukemia) was over 100 µM. It also gave a TGI (COLO 205 colon) of over 100 µM, a TGI (DU-145 prostate) of over 100 µM and a TGI (EKVX NSCLC) of over 100 µM. It also gave a TGI (HCC-2998 colon) of over 100 µM, a TGI (HCT-116 colon) of over 100 µM and a TGI (HCT-15 colon) of over 100 µM. It also gave a TGI (HL-60(TB) leukemia) of over 100 µM, a TGI (HOP-62 NSCLC) of over 100 µM and a TGI (HOP-92 NSCLC) of over 100 µM. It also gave a TGI (HS 578T breast) of over 100 µM, a TGI (HT29 colon) of over 100 µM and a TGI (IGROV1 ovarian) of over 100 µM. It also gave a TGI (K-562 leukemia) of over 100 µM, a TGI (KM12 colon) of over 100 µM and a TGI (LOX IMVI melanoma) of over 100 µM. It also gave a TGI (M14 melanoma) of over 100 µM, a TGI (MCF7 breast) of over 100 µM and a TGI (MDA-MB-231 breast) of over 100 µM. For the same compound, the TGI (MDA-MB-435) was over 100 µM, the TGI (MOLT-4 leukemia) was over 100 µM and the TGI (NCI-H226 lung) was over 100 µM. It also gave a TGI (NCI-H23 lung) of over 100 µM, a TGI (NCI-H460 lung) of over 100 µM and a TGI (NCI/ADR-RES ovarian) of over 100 µM. For the same compound, the TGI (OVCAR-4 ovarian) was over 100 µM, the TGI (OVCAR-8 ovarian) was over 100 µM and the TGI (PC-3 prostate) was over 100 µM. It also gave a TGI (RPMI-8226 leukemia) of over 100 µM, a TGI (RXF 393 renal) of over 100 µM and a TGI (SF-268 CNS) of over 100 µM. It also gave a TGI (SF-295 CNS) of over 100 µM, a TGI (SF-539 CNS) of over 100 µM and a TGI (SK-MEL-2 melanoma) of over 100 µM. The TGI (SK-MEL-28 melanoma) was over 100 µM, the TGI (SK-MEL-5 melanoma) was over 100 µM and the TGI (SK-OV-3 ovarian) was over 100 µM. For the same compound, the TGI (SNB-19 CNS) was over 100 µM, the TGI (SNB-75 CNS) was over 100 µM and the TGI (SR leukemia) was over 100 µM. For the same compound, the TGI (SW-620 colon) was over 100 µM, the TGI (T-47D breast) was over 100 µM and the TGI (TK-10 renal) was over 100 µM. The TGI (U251 CNS) was over 100 µM, the TGI (UACC-257 melanoma) was over 100 µM and the TGI (UACC-62 melanoma) was over 100 µM. It also gave a TGI (UO-31 renal) of over 100 µM.
Work on `c1cc(N2CCN(c3ccc(C4=NCCN4)cc3)CC2)ccc1C1=NCCN1` yielded a GI50 (786-0 renal) of over 68.9 µM, a TGI (786-0 renal) of over 100 µM and a GI50 (A498 renal) of 7.5 µM. For the same compound, the TGI (A498 renal) was over 100 µM, the GI50 (A549 NSCLC) was 66.7 µM and the TGI (A549 NSCLC) was over 100 µM. It also gave a GI50 (ACHN renal) of over 100 µM, a TGI (ACHN renal) of over 100 µM and a GI50 (BT-549 breast) of 24.9 µM. For the same compound, the TGI (BT-549 breast) was over 84.5 µM, the GI50 (CAKI-1 renal) was over 57.5 µM and the TGI (CAKI-1 renal) was over 100 µM. The GI50 (CCRF-CEM leukemia) was over 87.4 µM, the TGI (CCRF-CEM leukemia) was over 100 µM and the GI50 (COLO 205 colon) was over 100 µM. The TGI (COLO 205 colon) was over 100 µM, the GI50 (DU-145 prostate) was 45.7 µM and the TGI (DU-145 prostate) was over 100 µM. It also gave a GI50 (EKVX NSCLC) of 11.5 µM, a TGI (EKVX NSCLC) of 65.2 µM and a GI50 (HCT-116 colon) of over 100 µM. For the same compound, the TGI (HCT-116 colon) was over 100 µM, the GI50 (HCT-15 colon) was 66.3 µM and the TGI (HCT-15 colon) was over 100 µM. It also gave a GI50 (HL-60(TB) leukemia) of over 100 µM, a TGI (HL-60(TB) leukemia) of over 100 µM and a GI50 (HOP-62 NSCLC) of 16 µM. The TGI (HOP-62 NSCLC) was 58.7 µM, the GI50 (HOP-92 NSCLC) was over 100 µM and the TGI (HOP-92 NSCLC) was over 100 µM. It also gave a GI50 (HS 578T breast) of 25.1 µM, a TGI (HS 578T breast) of over 78.2 µM and a GI50 (HT29 colon) of over 100 µM. The TGI (HT29 colon) was over 100 µM, the GI50 (IGROV1 ovarian) was 55.9 µM and the TGI (IGROV1 ovarian) was over 100 µM. It also gave a GI50 (K-562 leukemia) of 39.4 µM, a TGI (K-562 leukemia) of over 100 µM and a GI50 (KM12 colon) of over 49 µM. For the same compound, the TGI (KM12 colon) was over 96.1 µM, the GI50 (LOX IMVI melanoma) was over 100 µM and the TGI (LOX IMVI melanoma) was over 100 µM. It also gave a GI50 (M14 melanoma) of over 61 µM, a TGI (M14 melanoma) of over 100 µM and a GI50 (MALME-3M melanoma) of 48.8 µM. For the same compound, the TGI (MALME-3M melanoma) was over 100 µM, the GI50 (MCF7 breast) was 24.6 µM and the TGI (MCF7 breast) was over 100 µM. It also gave a GI50 (MDA-MB-231 breast) of over 100 µM, a TGI (MDA-MB-231 breast) of over 100 µM and a GI50 (MDA-MB-435) of 58 µM. It also gave a TGI (MDA-MB-435) of over 100 µM, a GI50 (MOLT-4 leukemia) of over 100 µM and a TGI (MOLT-4 leukemia) of over 100 µM. It also gave a GI50 (NCI-H226 lung) of over 80.6 µM, a TGI (NCI-H226 lung) of over 100 µM and a GI50 (NCI-H23 lung) of over 44.4 µM. For the same compound, the TGI (NCI-H23 lung) was over 100 µM, the GI50 (NCI-H460 lung) was 24.9 µM and the TGI (NCI-H460 lung) was over 100 µM. It also gave a GI50 (NCI-H522 lung) of 21.2 µM, a TGI (NCI-H522 lung) of over 77.3 µM and a GI50 (NCI/ADR-RES ovarian) of over 100 µM. The TGI (NCI/ADR-RES ovarian) was over 100 µM, the GI50 (OVCAR-3 ovarian) was over 46.9 µM and the TGI (OVCAR-3 ovarian) was over 86 µM. For the same compound, the GI50 (OVCAR-4 ovarian) was over 100 µM, the TGI (OVCAR-4 ovarian) was over 100 µM and the GI50 (OVCAR-5 ovarian) was over 100 µM. It also gave a TGI (OVCAR-5 ovarian) of over 100 µM, a GI50 (OVCAR-8 ovarian) of 37.2 µM and a TGI (OVCAR-8 ovarian) of over 100 µM. The GI50 (PC-3 prostate) was over 73.6 µM, the TGI (PC-3 prostate) was over 100 µM and the GI50 (RPMI-8226 leukemia) was 12.8 µM. The TGI (RPMI-8226 leukemia) was over 53.5 µM, the GI50 (SF-268 CNS) was over 75.3 µM and the TGI (SF-268 CNS) was over 100 µM. For the same compound, the GI50 (SF-295 CNS) was 24.8 µM, the TGI (SF-295 CNS) was over 80.4 µM and the GI50 (SF-539 CNS) was 55.4 µM. The TGI (SF-539 CNS) was over 100 µM, the GI50 (SK-MEL-2 melanoma) was 52.4 µM and the TGI (SK-MEL-2 melanoma) was over 100 µM. For the same compound, the GI50 (SK-MEL-28 melanoma) was over 67.5 µM, the TGI (SK-MEL-28 melanoma) was over 100 µM and the GI50 (SK-MEL-5 melanoma) was 22.4 µM. For the same compound, the TGI (SK-MEL-5 melanoma) was over 68.8 µM, the GI50 (SK-OV-3 ovarian) was over 100 µM and the TGI (SK-OV-3 ovarian) was over 100 µM. It also gave a GI50 (SN12C renal) of 1.85 µM, a TGI (SN12C renal) of over 26.4 µM and a GI50 (SNB-19 CNS) of over 100 µM. For the same compound, the TGI (SNB-19 CNS) was over 100 µM, the GI50 (SNB-75 CNS) was over 100 µM and the TGI (SNB-75 CNS) was over 100 µM. For the same compound, the GI50 (SR leukemia) was 30.8 µM, the TGI (SR leukemia) was over 100 µM and the GI50 (SW-620 colon) was over 100 µM. The TGI (SW-620 colon) was over 100 µM, the GI50 (T-47D breast) was over 100 µM and the TGI (T-47D breast) was over 100 µM. It also gave a GI50 (TK-10 renal) of 43 µM, a TGI (TK-10 renal) of 98.9 µM and a GI50 (U251 CNS) of 32.7 µM. For the same compound, the TGI (U251 CNS) was over 100 µM, the GI50 (UACC-257 melanoma) was 58.7 µM and the TGI (UACC-257 melanoma) was 97.5 µM. The GI50 (UACC-62 melanoma) was 41.9 µM, the TGI (UACC-62 melanoma) was over 100 µM and the GI50 (UO-31 renal) was over 72 µM. The TGI (UO-31 renal) was over 100 µM.
